We go through six molecules from patent US6596712B2, “Treatment of carcinomas using squalamine in combination with other anti-cancer agents or modalities” (Genaera Corporation, priority 1996, dated 2003).

Assay [1] concerns 9L gliosarcoma tumors (9L glioma). As to the kind of experiment: 9L glioma flank study. The class given is in vivo, Fisher 344 rats. The settings on record: Day 25 or 26 after implantation; treatment from Day 5 per Table 4. As for the experimental part: Four groups of rats (twenty total Fisher 344 rats, 200 g) were given s.q. transplants of 1 mm3 9L gliosarcoma tumors (9L glioma) on Day 0. The tumors were implanted in the rat flanks to avoid complications relating to adequate brain levels of squalamine. Randomization and treatment began on Day 5 according to the following scheme:
On Day 25 or 26 after tumor implantation, the tumor size was measured directly. The tumor size (i.e., its volume “V”) was estimated based on volumetric calculations determined from the measured length (“L”), width (“W”), and height (“H”) of the tumor (Vtumor spheroid˜0.5 ×L×W×H). The tumor volumes shown in Table 5 represent the mean tumor volumes for each treatment group for those animals that survived to the end of the experiment.

For the next assay, the system named is Calu-6. As to the kind of experiment: Calu-6 lung tumor xenograft with carboplatin. The class given is in vivo, nude BALBc mice. As for the experimental part:
(§1) About 5×10^6 cells from each of two human lung tumor lines, H460 (a rapidly proliferating large cell carcinoma cell line, ATCC HTB-177) and Calu-6 (an anaplastic carcinoma, ATCC HTB-56), were inoculated subcutaneously in the right foreleg of nude BALBc mice. Once tumors were visible (3-5 days) with a mean volume of approximately 50-80 mm^3, mice were treated intraperitoneally with 60 mg/kg carboplatin (single dose) or 20 mg/kg/squalamine (once daily for 5 days) or a combination of carboplatin and squalamine. There were 8 mice per group. Tumor growth inhibition was scored by quantifying the size of tumors once control tumors reached a size of 1.0 gram and determining the ratio of mean treated tumor size to mean control tumor size (T/C). Tumor growth inhibition was then scored as 100% x [1-(T/C)]. A separate antitumor activity variable, tumor growth delay, was scored for the tumors by determining the length of time it required for the mean tumor size in a treatment group to reach a size of 500 mm^3 (B. A. Teicher et al., Anticancer Research 18, 2567-2574 (1998)). The tumor growth inhibition seen with carboplatin plus squalamine was greater than that seen with carboplatin or squalamine alone. The relative inactivity of squalamine as a single agent by this assay endpoint supports the idea that squalamine is synergistic with carboplatin in the inhibition of these two human lung tumor xenografts. Similarly, it was determined that squalamine enhanced the tumor growth delay caused by carboplatin by an enhancement factor of >2.3 (Table 7).

In the next assay the test system is H460. As to the kind of experiment: H460 lung tumor xenograft with carboplatin. The class given is in vivo, nude BALBc mice. As for the experimental part:
as §1

Assay [2] relates to murine Lewis lung adenocarcinoma. As to the kind of experiment: Lung metastases of subcutaneous Lewis lung carcinoma. The class given is in vivo, C57BL/6 mice. The settings on record: day 20; squalamine 20 mg/kg/day s.c.; cyclophosphamide 125 mg/kg i.p. days 7, 9, 11; cisplatin 10 mg/kg i.p. day 7. As for the experimental part: The murine Lewis lung adenocarcinoma was implanted subcutaneously in the hind-leg of male C57BL/6 mice and allowed to grow for one week. Groups of mice were then left untreated or treated with either squalamine (20 mg/kg/day, s.c.), cyclophosphamide (125 mg/kg, i.p. on days 7, 9 and 11), cisplatin (10 mg/kg, i.p. on day 7), the combination of squalamine and cyclophosphamide, or the combination of squalamine and cisplatin. On day 20, the animals were sacrificed, and the mean number of lung metastases were determined for each group.

For the next assay, the system named is parental 2008 cell line. As to the kind of experiment: Human ovarian tumor 2008 xenograft with cisplatin. The class given is in vivo, female Swiss nude mice. The settings on record: cisplatin single dose 4 mg/kg, squalamine 2 mg/kg, days 1-10. As to the method: Human ovarian tumor cells were injected subcutaneously (5×10^7 cells per animal) in the mid-back region of female Swiss nude mice. The human ovarian tumors were either the parental 2008 cell line (cf. R. J. Pietras et al., Oncogene 9, 1829-1838 (1994)) or a transfected variant overexpressing the Her-2/neu receptor. The overexpression of the Her-2/neu receptor is considered to make the resulting xenograft tumors more angiogenic and less responsive to chemotherapy. After one week, animals were randomized to groups receiving no treatment (controls), a single dose of cisplatin (4 mg/kg), daily treatment with squalamine (2 mg/kg, days 1-10) or cisplatin plus squalamine. The growth of tumors was then scored on day 28 following initiation of chemotherapy. The results were very similar with the parental 2008 tumor and the transfected variant overexpressing the Her-2/neu receptor. […] In this xenograft model, the [day 28 mean treated tumor weight increase divided by the day 28 mean control tumor weight increase (T/C)] x 100% was subtracted from 100% to give the tumor growth inhibition (TGI) value for each group.

For the next assay, the system named is NHE1, NHE2, NHE3. The settings on record: FIG. 4; cited from earlier work.
For assay [3], the system named is human MX-1 breast cancer line. The class given is in vivo. The settings on record: single 200 mg/kg dose on day 14. As to the method:
These documents each are entirely incorporated herein by reference. Squalamine was examined as adjunctive therapy following a single 200 mg/kg dose of cyclophosphamide. The cyclophosphamide was injected on day 14 following implantation of the tumor, at a time when the tumors measured 65-125 μl. […] The animals were then randomized to three treatment arms (each n=27): vehicle dosing only (Intralipid); squalamine given 10 mg/kg/day in Intralipid; and squalamine given 20 mg/kg/day in Intralipid for five days a week. Animals whose tumors exceeded 2 grams at any time during the experiment were euthanized. The experiment was continued for 90 days after initiating squalamine treatment to ensure that only mice experiencing long-term cures were still alive.

The next assay deals with LNCaP cells. As to the kind of experiment: LNCaP cell growth in vitro ([3H]-thymidine incorporation). The class given is cell-based, human. The settings on record: media containing serum. As to the method:
The anti-proliferative effect of squalamine was evaluated in tissue culture by both crystal violet staining and [^3H]-thymidine incorporation, on the LNCaP/C4-2 human prostate cancer progression model. Developed by applicants' laboratory, this lineage-derived cell line recapitulates the progression of human neoplastic prostate disease from an androgen-dependent and minimally metastatic condition (LNCaP cells) to an androgen-independent (defined as being able to proliferate in castrate hosts) and highly aggressive state (C4-2 subline).
In vitro experiments were also conducted with the LNCAP cell line in which cell proliferation as judged by [3H]-thymidine uptake was determined. LNCaP cells were maintained as previously described (cf. J. T. Hsieh et al., Cancer Research 53, 2852-2857 (1993)). Cells were exposed to 20 ng/mL vascular endothelial growth factor (VEGF), 20 μg/mL squalamine or a combination of VEGF and squalamine. […] As a consequence, the mechanism underlying the effectiveness of squalamine treatment of the LNCaP tumor in vivo may under certain conditions also involve direct inhibition of tumor cell growth and/or induction of tumor cell death.

[4] abbreviates: carboplatin 60 mg/kg i.p. single dose, squalamine 20 mg/kg once daily for 5 days.
The mark [5] stands for this setting: time for mean tumor size to reach 500 mm^3.

For `O=NN(CCCl)C(=O)NCCCl` [BCNU, 1,3-Bis(2-chloroethyl)-1-nitrosourea, reference compound], in assay [1], the “% Reduction (based on control volume)” value is 86.1% and the “Mean Tumor volume” value was 2,547 mm^3.
With `N.N.O=C([O-])C1(C(=O)[O-])CCC1.[Pt+2]` [Carboplatin, carboplatin], the “Tumor Growth Inhibition (T/C)” value stood at 23% with Calu-6 (setting [4]) and 50% in the assay on H460 (setting [4]). Further, the “Tumor Growth Delay” value with Calu-6 (setting [5]) is on record as 2.5; in the assay on H460 (setting [5]), 2.9.
For `N.N.[Cl][Pt][Cl]` [Cisplatin, cis-Diamminedichloroplatinum, reference compound], the “mean number of lung metastases” value in assay [2] was “reduced the number of metastases”. In the assay on parental 2008 cell line, the “Day 28 Mean Tumor Size” value stood at 5108 mm^3. Besides, the “Tumor Growth Inhibition (TGI) Index” value in the assay on parental 2008 cell line (day 28) is 18%.
Consider `N=C(N)NC(=O)c1nc(Cl)c(N)nc1N` [amiloride], for which, in the assay with NHE1, NHE2, NHE3, the NHE isoform selectivity entry is given as “specifically act against NHE1 over NHE2 or NHE3”.
As for `O=P1(N(CCCl)CCCl)NCCCO1` (centres unmarked) [cyclophosphamide, N,N-Bis-(2-chloroethyl)-N′-(3-hydroxypropyl)phosphordiamidic acid cyclic ester monohydrate, reference compound], the “mean number of lung metastases” value in assay [2] is on record as “reduced the number of metastases”. Further, the tumor regression entry in assay [3] is “partial regression in all animals and complete regression in a small fraction of the animals”.
On to VEGF, for which the “Percent of Control [3H]-Thymidine Uptake” value with LNCaP cells (20 ng/mL VEGF and/or 20 μg/mL squalamine, 24 hours) is listed as 84%. The “effect on cell growth alone” value with LNCaP cells (20 ng/mL VEGF or 20 μg/mL squalamine) is recorded as “minimal effects on cell growth”.
